Values joined by “and” are separate entries in the source; they are usually repeats but may differ in a detail not shown here. Identical values can stand only once.

The experiment has as its system 991263-137-R1-J2-PDC complex spheroid viability. Put plainly: Anticancer human tumor 991263-137-R1-J2-PDC patient-derived colon adenocarcinoma cell line growth inhibition [POLQ]. The settings on record: for viability, T/C: stronger effect = lower value. An outline of the steps: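 Growth inhibition in 3D: complex spheroids (tumor PDC, HUVEC, MSC) treated with POLQ inhibitor combinations; where Cmax unknown, highest tested concentration 10 microM, except SN-38 at 1 microM.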

Setting [1] is: curve of first compound, second compound 0.0316 µM.
The mark [2] stands for this setting: curve of first compound, second compound 0.1 µM.
[3] abbreviates: curve of first compound, second compound 0.316 µM.
The mark [4] stands for this setting: curve of first compound, second compound 1 µM.
Where [5] appears, read: curve of first compound, second compound 3.16 µM.
The mark [6] stands for this setting: curve of first compound, second compound 10 µM.
Where [7] appears, read: second compound 0.0316 µM, first compound 0.0316 µM.
[8] abbreviates: second compound 0.0316 µM, first compound 0.1 µM.
Setting [9] is: second compound 0.1 µM, first compound 0.0316 µM.
Setting [10] is: second compound 0.1 µM, first compound 0.1 µM.
Where [11] appears, read: second compound 0.316 µM, first compound 0.0316 µM.
The mark [12] stands for this setting: second compound 0.316 µM, first compound 0.1 µM.
The mark [13] stands for this setting: second compound 1 µM, first compound 0.0316 µM.
Setting [14] is: second compound 1 µM, first compound 0.1 µM.
The mark [15] stands for this setting: second compound 3.16 µM, first compound 0.0316 µM.
Where [16] appears, read: second compound 3.16 µM, first compound 0.1 µM.
Setting [17] is: second compound 10 µM, first compound 0.0316 µM.
[18] abbreviates: second compound 10 µM, first compound 0.1 µM.
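Note: spheroids exposed to compounds for 7 days before readout.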
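Throughout, for viability, T/C: 100% = DMSO vehicle control viability.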

With `Nc1ccc(C#CCN(C(=O)Cc2ncc(C(F)(F)F)cc2C(F)(F)F)c2ccc(F)cc2)nn1`, the viability, T/C is 100% [middle of 13 runs] (compound 0.0316 µM); 101% [middle of 13 runs] (compound 0.1 µM); 99.3% [middle of 13 runs] (compound 0.316 µM); 102% [middle of 13 runs] (compound 1 µM); 103% [middle of 13 runs] (compound 3.16 µM); 101% [middle of 13 runs] (compound 10 µM). The IC50 (compound alone, run of 01/19/2024) is above 10 µM.

Turning to `CC1COCCN1c1cc(C2(O)CC3CCC(C2)O3)c2cnn(-c3ccn[nH]3)c2n1` (stereo not given), the viability, T/C is, setting by setting: (compound 0.0316 µM) 103% and 87.7% and 99%; (compound 0.1 µM) 95.7% and 94% and 86.5%; (compound 0.316 µM) 88.2% and 74.1% and 73.4%; (compound 1 µM) 56.8% and 58.5% and 54.9%; (compound 3.16 µM) 36.5% and 33.8% and 36.9%; (compound 10 µM) 30.4% and 26.9% and 29.3%. Also, the concentration for half-maximal inhibition (IC50) (curve of compound) was 1.5 µM and 1.41 µM and 1.35 µM.

Regarding `C=CCn1c(=O)c2cnc(Nc3ccc(N4CCN(C)CC4)cc3)nc2n1-c1cccc(C(C)(C)O)n1`, the viability, T/C runs as follows: (compound 0.00316 µM) 103% and 105% and 106%; (compound 0.01 µM) 88.5% and 105% and 93.9%; (compound 0.0316 µM) 87% and 106% and 98.4%; (compound 0.1 µM) 107% and 98.7% and 95.2%; (compound 1 µM) 86.5% and 94.9% and 95%. Further, the IC50 (curve of compound) is above 1 µM.

In the case of `COc1ccc([C@@H](O)c2cc(-c3ncnc4cc(N5CCOCC5)ccc34)c(F)cc2Cl)nn1`, the viability, T/C (compound 0.0316 µM) was 105% and 102% and 82.6%; the viability, T/C (compound 0.1 µM) is 84.6% and 103% and 79.1%; the viability, T/C (compound 0.316 µM) was 98.5% and 95.2% and 91.9%; the viability, T/C (compound 1 µM) is 87% and 97.5% and 103%; the viability, T/C (compound 3.16 µM) is 68% and 66.7% and 59.3%; the viability, T/C (compound 10 µM) is 28.5% and 31.4% and 28.6%. For the same molecule, the IC50 (curve of compound) was 5.36 µM and 5.45 µM and 4.48 µM.

`COc1ccc([C@@H](O)c2cc(-c3ncnc4cc(N5CCOCC5)ccc34)c(F)cc2Cl)nn1` + COC1C(OC(N)=O)C(O)C(Oc2ccc3c(O)c(NC(=O)c4ccc(O)c(CC=C(C)C)c4)c(=O)oc3c2C)OC1(C)C: the IC50 is, setting by setting: under setting [1], 5.41 µM; under setting [2], 4.12 µM; under setting [3], 5.53 µM; under setting [4], 2.94 µM; under setting [5], 6.38 µM; under setting [6], 6.09 µM. Moreover, the viability, T/C is, setting by setting: under setting [7], 107%; under setting [8], 96.3%; (second compound 0.0316 µM, first compound 0.316 µM) 90.8%; (second compound 0.0316 µM, first compound 1 µM) 76.2%; (second compound 0.0316 µM, first compound 3.16 µM) 71.7%; (second compound 0.0316 µM, first compound 10 µM) 31.5%. Besides, the viability, T/C is, setting by setting: under setting [9], 99.8%; under setting [10], 98.3%; (second compound 0.1 µM, first compound 0.316 µM) 84.6%; (second compound 0.1 µM, first compound 1 µM) 91.7%; (second compound 0.1 µM, first compound 3.16 µM) 55.6%; (second compound 0.1 µM, first compound 10 µM) 30.9%. For the same molecule, the viability, T/C by setting is: under setting [11], 82.7%; under setting [12], 107%; (second compound 0.316 µM, first compound 0.316 µM) 88.5%; (second compound 0.316 µM, first compound 1 µM) 71%; (second compound 0.316 µM, first compound 3.16 µM) 70.5%; (second compound 0.316 µM, first compound 10 µM) 33%. Moreover, the viability, T/C stood at 95.3% under setting [13]; 107% under setting [14]; 96.8% (second compound 1 µM, first compound 0.316 µM); 70.7% (second compound 1 µM, first compound 1 µM); 51.9% (second compound 1 µM, first compound 3.16 µM); 32.6% (second compound 1 µM, first compound 10 µM). For the same molecule, the viability, T/C is, setting by setting: under setting [15], 94.3%; under setting [16], 101%; (second compound 3.16 µM, first compound 0.316 µM) 96.7%; (second compound 3.16 µM, first compound 1 µM) 85.6%; (second compound 3.16 µM, first compound 3.16 µM) 79.9%; (second compound 3.16 µM, first compound 10 µM) 32.2%. Also, the viability, T/C by setting is: under setting [17], 88.1%; under setting [18], 103%; (second compound 10 µM, first compound 0.316 µM) 94.8%; (second compound 10 µM, first compound 1 µM) 111%; (second compound 10 µM, first compound 3.16 µM) 67.1%; (second compound 10 µM, first compound 10 µM) 37.1%.

For the molecule `CC[C@@]1(O)C(=O)OCc2c1cc1n(c2=O)Cc2cc3c(CN(C)C)c(O)ccc3nc2-1`, the viability, T/C was 111% and 94.9% and 103% (compound 0.000316 µM); 101% and 96.9% and 107% (compound 0.001 µM); 110% (2×) and 111% (compound 0.00316 µM); 105% and 101% and 91.5% (compound 0.01 µM); 100% and 91.2% and 89.8% (compound 0.0316 µM); 90.4% and 80.7% and 84.4% (compound 0.1 µM). Moreover, the IC50 (curve of compound) was above 0.1 µM.

For `Cn1ncnc1[C@H]1c2n[nH]c(=O)c3cc(F)cc(c23)N[C@@H]1c1ccc(F)cc1` + Nc1ccc(C#CCN(C(=O)Cc2ncc(C(F)(F)F)cc2C(F)(F)F)c2ccc(F)cc2)nn1, the IC50 under setting [1] is above 0.1 µM; the concentration for half-maximal inhibition (IC50) under setting [2] is above 0.1 µM; the IC50 under setting [3] was above 0.1 µM; the IC50 under setting [4] was above 0.1 µM; the IC50 under setting [5] is above 0.1 µM; the IC50 under setting [6] is above 0.1 µM. The viability, T/C runs as follows: (second compound 0.0316 µM, first compound 0.000316 µM) 106%; (second compound 0.0316 µM, first compound 0.001 µM) 97.1%; (second compound 0.0316 µM, first compound 0.00316 µM) 99.6%; (second compound 0.0316 µM, first compound 0.01 µM) 98.8%; under setting [7], 106%; under setting [8], 94%. The viability, T/C by setting is: (second compound 0.1 µM, first compound 0.000316 µM) 99.1%; (second compound 0.1 µM, first compound 0.001 µM) 102%; (second compound 0.1 µM, first compound 0.00316 µM) 95.2%; (second compound 0.1 µM, first compound 0.01 µM) 107%; under setting [9], 106%; under setting [10], 110%. The viability, T/C runs as follows: (second compound 0.316 µM, first compound 0.000316 µM) 93.7%; (second compound 0.316 µM, first compound 0.001 µM) 95.1%; (second compound 0.316 µM, first compound 0.00316 µM) 94.2%; (second compound 0.316 µM, first compound 0.01 µM) 105%; under setting [11], 109%; under setting [12], 82.9%. Besides, the viability, T/C by setting is: (second compound 1 µM, first compound 0.000316 µM) 96.8%; (second compound 1 µM, first compound 0.001 µM) 103%; (second compound 1 µM, first compound 0.00316 µM) 112%; (second compound 1 µM, first compound 0.01 µM) 109%; under setting [13], 104%; under setting [14], 94.5%. The viability, T/C (second compound 3.16 µM, first compound 0.000316 µM) was 101%; the viability, T/C (second compound 3.16 µM, first compound 0.001 µM) turned out to be 92%; the viability, T/C (second compound 3.16 µM, first compound 0.00316 µM) stood at 98.3%; the viability, T/C (second compound 3.16 µM, first compound 0.01 µM) came to 97.7%; the viability, T/C under setting [15] is 101%; the viability, T/C under setting [16] was determined as 112%. Besides, the viability, T/C (second compound 10 µM, first compound 0.000316 µM) came out at 99.3%; the viability, T/C (second compound 10 µM, first compound 0.001 µM) was 106%; the viability, T/C (second compound 10 µM, first compound 0.00316 µM) is 97.1%; the viability, T/C (second compound 10 µM, first compound 0.01 µM) turned out to be 103%; the viability, T/C under setting [17] amounted to 101%; the viability, T/C under setting [18] was 110%.

With `CC1COCCN1c1cc(C2(S(C)(=N)=O)CC2)nc(-c2ccnc3[nH]ccc23)n1` (stereo not given), the viability, T/C reads like this: (compound 0.0316 µM) 107% and 98.9% and 98.6%; (compound 0.1 µM) 96.1% and 109% and 104%; (compound 0.316 µM) 100% and 94.6% and 92.8%; (compound 1 µM) 103% and 101% and 95.1%; (compound 3.16 µM) 83% and 97.9% and 103%; (compound 10 µM) 75.5% and 93.9% and 74.7%. Also, the IC50 (curve of compound) is above 10 µM.

Take `O=C(c1cc(Cc2n[nH]c(=O)c3ccccc23)ccc1F)N1CCN(C(=O)C2CC2)CC1`: the viability, T/C (compound 0.0316 µM) is 106% and 90.8% and 97%; the viability, T/C (compound 0.1 µM) is 97.2% and 97.7% and 99.1%; the viability, T/C (compound 0.316 µM) is 84.8% and 95.7% and 101%; the viability, T/C (compound 1 µM) was 108% and 85.4% and 103%; the viability, T/C (compound 3.16 µM) is 105% and 92.7% and 98.1%. The IC50 (curve of compound) is above 10 µM.

Regarding `COc1cc(C2c3cc4c(cc3C(OC3OC5COC(C)OC5C(O)C3O)C3COC(=O)C23)OCO4)cc(OC)c1O` (stereo not given), the viability, T/C reads like this: (compound 0.0316 µM) 105% and 96.4% and 99.6%; (compound 0.1 µM) 86.2% and 94.5% and 92.4%; (compound 1 µM) 97.8% and 95.9% and 92.5%; (compound 3.16 µM) 77.9% and 88.6% and 71.9%; (compound 10 µM) 69.9% and 77% and 77.1%. Moreover, under “curve of compound”, the IC50 is above 10 µM.

For `CNCc1ccc(-c2[nH]c3cc(F)cc4c3c2CCNC4=O)cc1`, the viability, T/C was 98% and 102% and 119% (compound 0.0316 µM); 109% and 91.5% and 97.6% (compound 0.1 µM); 97% and 102% and 112% (compound 0.316 µM); 110% and 101% and 96% (compound 1 µM); 111% and 110% and 104% (compound 10 µM). In addition, the 50% inhibitory concentration (IC50) (curve of compound) was above 10 µM.

Consider `CCc1cc2c(N3CCc4c(cc(Cn5ccnc5)cc4-c4cn(C)nc4C(F)(F)F)C3=O)ccnc2c(OC)n1`, for which the viability, T/C reads like this: (compound 0.0316 µM) 95% and 111% and 105%; (compound 0.1 µM) 98.7% and 90.5% and 101%; (compound 0.316 µM) 94.4% and 103% and 99.7%; (compound 1 µM) 101% and 91.2% and 96.7%; (compound 3.16 µM) 91.8% and 97.7% and 83.7%; (compound 10 µM) 98.8% and 88.6% and 94.2%. The IC50 (curve of compound) was above 10 µM.

The viability, T/C is the result in the treated group divided by that in the control group, in per cent. Usually IC50 stands for the concentration needed to halve the response being measured.
